target: T1, human TLR8 (Homo sapiens, UniProt Q9NR97); experiment: HEK293-Blue-hTLR-8 cells assay; type: cell-based; conditions: HEK293-Blue-hTLR8 cells, R848 stimulation, 20 hrs, SEAP reporter; read-out: HEK/hTLR8 IC50
T1 construct: host or cells: HEK293 (HEK-Blue hTLR8)
T1 sequence (Q9NR97 27-1041): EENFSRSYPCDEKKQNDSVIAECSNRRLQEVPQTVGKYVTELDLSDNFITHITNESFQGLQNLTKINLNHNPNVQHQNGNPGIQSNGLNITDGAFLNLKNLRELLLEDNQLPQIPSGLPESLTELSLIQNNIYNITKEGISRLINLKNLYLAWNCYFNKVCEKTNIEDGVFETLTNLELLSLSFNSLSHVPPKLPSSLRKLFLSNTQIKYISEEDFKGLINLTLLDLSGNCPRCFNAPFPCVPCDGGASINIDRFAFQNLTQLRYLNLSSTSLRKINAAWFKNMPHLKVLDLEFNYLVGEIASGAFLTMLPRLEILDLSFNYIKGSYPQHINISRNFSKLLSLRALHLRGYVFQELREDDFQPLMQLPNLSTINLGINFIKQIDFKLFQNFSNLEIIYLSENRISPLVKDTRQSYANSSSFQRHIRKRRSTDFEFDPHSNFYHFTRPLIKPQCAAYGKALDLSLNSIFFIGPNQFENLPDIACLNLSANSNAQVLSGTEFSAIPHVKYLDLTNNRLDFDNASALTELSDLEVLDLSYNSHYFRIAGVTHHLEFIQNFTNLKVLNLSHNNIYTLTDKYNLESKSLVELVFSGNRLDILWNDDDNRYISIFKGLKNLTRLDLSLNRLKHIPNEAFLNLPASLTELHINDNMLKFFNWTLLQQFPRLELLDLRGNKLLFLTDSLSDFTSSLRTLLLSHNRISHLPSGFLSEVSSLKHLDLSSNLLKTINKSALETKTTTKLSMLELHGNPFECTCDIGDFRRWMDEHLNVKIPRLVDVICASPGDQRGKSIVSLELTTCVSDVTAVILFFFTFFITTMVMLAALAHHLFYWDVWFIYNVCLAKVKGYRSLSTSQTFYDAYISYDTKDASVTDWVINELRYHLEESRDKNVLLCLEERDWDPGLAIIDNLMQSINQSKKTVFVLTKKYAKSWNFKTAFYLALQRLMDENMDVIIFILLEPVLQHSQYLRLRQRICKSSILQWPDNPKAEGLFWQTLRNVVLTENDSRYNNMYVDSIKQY
Source text: HEK293-Blue-hTLR-8 Cells Assay:
A stable HEK293-Blue-hTLR-8 cell line was purchased from InvivoGen (Cat. #: hkb-htlr8, San Diego, Calif., USA). These cells were originally designed for studying the stimulation of human TLR8 by monitoring the activation of NF-κB. A SEAP (secreted embryonic alkaline phosphatase) reporter gene was placed under the control of the IFN-β minimal promoter fused to five NF-κB and AP-1-binding sites. The SEAP was induced by activating NF-κB and AP-1 via stimulating HEK-Blue hTLR8 cells with TLR8 ligands. Therefore the reporter expression was declined by TLR8 antagonist under the stimulation of a ligand, such as R848, for incubation of 20 hrs. The cell culture supernatant SEAP reporter activity was determined using QUANTI-Blue™ kit (Cat. #: rep-qbl, Invivogen, San Diego, Ca, USA) at a wavelength of 640 nm, a detection medium that turns purple or blue in the presence of alkaline phosphatase.
HEK293-Blue-hTLR8 cells were incubated at a density of 250,000˜450,000 cells/mL in a volume of 170 μL in a 96-well plate in Dulbecco's Modified Eagle's medium (DMEM) containing 4.5 g/L glucose, 50 U/mL penicillin, […], […], 2 mM L-glutamine, 10% (v/v) heat-inactivated fetal bovine serum with addition of 20 μL test compound in a serial dilution in the presence of final DMSO at 1% and 10 μL of 60 uM R848 in above DMEM, perform incubation under 37° C. in a CO2 incubator for 20 hrs. Then 20 μL of the supernatant from each well was incubated with 180 μL Quanti-blue substrate solution at 37° C. for 2 hrs and the absorbance was read at 620-655 nm using a spectrophotometer. The signaling pathway that TLR8 activation leads to downstream NF-κB activation has been widely accepted, and therefore similar reporter assay was modified for evaluating TLR8 antagonist.

IC50	SMILES
0.4 nM	[2H]c1ccc2c(N3C[C@@H](C)N4Cc5nc(N6C[C@@H]7C[C@H]6CN7)ccc5[C@H]4C3)ccc(C#N)c2n1 [Example 16, 2-Deuterio-5-[(2S,6R)-11-[(1S,4S)-2,5-diazabicyclo[2.2.1]heptan-2-yl]-6-methyl-4,7,10-triazatricyclo[7.4.0.02,7]trideca-1(9),10,12-trien-4-yl]quinoline-8-carbonitrile]
< 0.3 nM	[2H]c1ccc2c(N3C[C@@H](C)N4Cc5nc(N6CC[C@@H](OC)[C@H](N)C6)ccc5[C@H]4C3)ccc(C#N)c2n1 [Example 15, 5-[(2S,6R)-11-[(3R,4R)-3-amino-4-methoxy-1-piperidyl]-6-methyl-4,7,10-triazatricyclo[7.4.0.02,7]trideca-1(9),10,12-trien-4-yl]-2-deuterio-quinoline-8-carbonitrile]
0.5 nM	N#Cc1ccc(N2CCN3Cc4nc(N5CCNCC5)ccc4[C@@H]3C2)c2cccnc12 [Example 3A, 5-[(2R)-11-piperazin-1-yl-4,7,10-triazatricyclo[7.4.0.02,7]trideca-1(9),10,12-trien-4-yl]quinoline-8-carbonitrile]
< 0.3 nM	[2H]c1ccc2c(N3C[C@@H](C)N4Cc5nc(OC6CCNCC6)ccc5[C@H]4C3)ccc(C#N)c2n1 [Example 24, 2-Deuterio-5-[(2S,6R)-6-methyl-11-(4-piperidyloxy)-4,7,10-triazatricyclo[7.4.0.02,7]trideca-1(9),10,12-trien-4-yl]quinoline-8-carbonitrile]
< 0.3 nM	C[C@@H]1CN(c2ccc(C#N)c3ncccc23)C[C@@H]2c3ccc(N4CCNCC4)nc3CN12 [Example 5, 5-[(2S,6R)-6-methyl-11-piperazin-1-yl-4,7,10-triazatricyclo[7.4.0.02,7]trideca-1(9),10,12-trien-4-yl]quinoline-8-carbonitrile]
0.7 nM	[2H]c1ccc2c(N3C[C@@H](C)N4Cc5nc(N6CCC7(CNC7)C6)ccc5[C@H]4C3)ccc(C#N)c2n1 [Example 9, 2-Deuterio-5-[(2S,6R)-11-(2,6-diazaspiro[3.4]octan-6-yl)-6-methyl-4,7,10-triazatricyclo[7.4.0.02,7]trideca-1(9),10,12-trien-4-yl]quinoline-8-carbonitrile]
< 0.3 nM	[2H]c1ccc2c(N3C[C@@H](C)N4Cc5nc(N6CC[C@H](OC)[C@@H](N)C6)ccc5[C@H]4C3)ccc(C#N)c2n1 [Example 14, 5-[(2S,6R)-11-[(3S,4S)-3-amino-4-methoxy-1-piperidyl]-6-methyl-4,7,10-triazatricyclo[7.4.0.02,7]trideca-1(9),10,12-trien-4-yl]-2-deuterio-quinoline-8-carbonitrile]
< 0.3 nM	[2H]c1ccc2c(N3C[C@@H](C)N4Cc5nc(N6CC[C@@H](N)[C@H](OC)C6)ccc5[C@H]4C3)ccc(C#N)c2n1 [Example 11, 5-[(2S,6R)-11-[(3R,4R)-4-amino-3-methoxy-1-piperidyl]-6-methyl-4,7,10-triazatricyclo[7.4.0.02,7]trideca-1(9),10,12-trien-4-yl]-2-deuterio-quinoline-8-carbonitrile]
0.4 nM	C[C@@H]1CN(c2ccc(C#N)c3ncccc23)C[C@@H]2c3cnc(N4CCNCC4)cc3CN12 [Example 2, 5-[(2S,6R)-6-methyl-11-piperazin-1-yl-4,7,12-triazatricyclo[7.4.0.02,7]trideca-1(9),10,12-trien-4-yl] quinoline-8-carbonitrile]
0.3 nM	[2H]c1ccc2c(N3C[C@@H](C)N4Cc5nc(C6CCNCC6)ccc5[C@H]4C3)ccc(C#N)c2n1 [Example 23, 2-Deuterio-5-[(2S,6R)-6-methyl-11-(4-piperidyl)-4,7,10-triazatricyclo[7.4.0.02,7]trideca-1(9),10,12-trien-4-yl]quinoline-8-carbonitrile]
< 0.3 nM	[2H]c1ccc2c(N3C[C@@H](C)N4Cc5nc(N6CC[C@](C)(N)C6)ccc5[C@H]4C3)ccc(C#N)c2n1 [Example 8, 5-[(2S,6R)-11-[(3S)-3-amino-3-methyl-pyrrolidin-1-yl]-6-methyl-4,7,10-triazatricyclo[7.4.0.02,7]trideca-1(9),10,12-trien-4-yl]-2-deuterio-quinoline-8-carbonitrile]
< 0.3 nM	[2H]c1ccc2c(N3C[C@@H](C)N4Cc5nc(N6CC[C@H](N)[C@H](OC)C6)ccc5[C@H]4C3)ccc(C#N)c2n1 [Example 13, 5-[(2S,6R)-11-[(3R,4S)-4-amino-3-methoxy-1-piperidyl]-6-methyl-4,7,10-triazatricyclo[7.4.0.02,7]trideca-1(9),10,12-trien-4-yl]-2-deuterio-quinoline-8-carbonitrile]
< 0.3 nM	[2H]c1ccc2c(N3C[C@@H](C)N4Cc5nc(N6CC[C@@](C)(N)C6)ccc5[C@H]4C3)ccc(C#N)c2n1 [Example 7, 5-[(2S,6R)-11-[(3R)-3-amino-3-methyl-pyrrolidin-1-yl]-6-methyl-4,7,10-triazatricyclo[7.4.0.02,7]trideca-1(9),10,12-trien-4-yl]-2-deuterio-quinoline-8-carbonitrile]
2.3 nM	C[C@@H]1CN(c2ccc(C#N)c3ncccc23)C[C@@H]2c3ccc(N4CC5CNCC(C4)O5)nc3CN12 [Example 6, 5-[(2S,6R)-6-methyl-11-(9-oxa-3,7-diazabicyclo[3.3.1]nonan-3-yl)-4,7,10-triazatricyclo[7.4.0.02,7]trideca-1(9),10,12-trien-4-yl]quinoline-8-carbonitrile]
1.9 nM	CC1(N)CCN(c2ccc3c(n2)CN2CCN(c4ccc(C#N)c5ncccc45)C[C@@H]32)CC1 [Example 4A, 5-[(2R)-11-(4-amino-4-methyl-1-piperidyl)-4,7,10-triazatricyclo[7.4.0.02,7]trideca-1(9),10,12-trien-4-yl]quinoline-8-carbonitrile]
< 0.3 nM	C[C@@H]1CN(c2ccc(C#N)c3ncccc23)C[C@@H]2c3ccc(N4CCCNCC4)nc3CN12 [Example 20, 5-[(2S,6R)-11-(1,4-diazepan-1-yl)-6-methyl-4,7,10-triazatricyclo[7.4.0.02,7]trideca-1(9),10,12-trien-4-yl]quinoline-8-carbonitrile]
< 0.3 nM	[2H]c1ccc2c(N3C[C@@H](C)N4Cc5nc(N6CC[C@H]7CNC[C@H]76)ccc5[C@H]4C3)ccc(C#N)c2n1 [Example 10, 5-[(2S,6R)-11-[(3aS,6aS)-3,3a,4,5,6,6a-hexahydro-2H-pyrrolo[2,3-c]pyrrol-1-yl]-6-methyl-4,7,10-triazatricyclo[7.4.0.02,7]trideca-1(9),10,12-trien-4-yl]-2-deuterio-quinoline-8-carbonitrile]
< 0.3 nM	[2H]c1ccc2c(N3C[C@@H](C)N4Cc5nc(N6C[C@H]7C[C@@H]6CN7)ccc5[C@H]4C3)ccc(C#N)c2n1 [Example 17, 2-Deuterio-5-[(2S,6R)-11-[(1R,4R)-2,5-diazabicyclo[2.2.1]heptan-2-yl]-6-methyl-4,7,10-triazatricyclo[7.4.0.02,7]trideca-1(9),10,12-trien-4-yl]quinoline-8-carbonitrile]
< 0.3 nM	[2H]c1ccc2c(N3C[C@@H](C)N4Cc5nc(N6CCC(C)(N)CC6)ccc5[C@H]4C3)ccc(C#N)c2n1 [Example 19, 5-[(2S,6R)-11-(4-amino-4-methyl-1-piperidyl)-6-methyl-4,7,10-triazatricyclo[7.4.0.02,7]trideca-1(9),10,12-trien-4-yl]-2-deuterio-quinoline-8-carbonitrile]

Source: patent US12503471B2, “Triazatricycle compounds for the treatment of autoimmune disease” (Hoffmann-La Roche Inc., priority 2019, dated 2025)
